Assay results taken from patent US7858619B2, “Substituted tetrahydroisochinolines as MMP inhibitors, related production method and use as medicine” (sanofi-aventis, priority 2005, dated 2010).
pIC50: −log10 of the molar value. Values after ≈ are worked out from the molar mass of the structure shown. Like-named read-outs stand apart in the source and are kept apart here.

Assays:
Protein binding (human) = type: in vitro ADME; settings: plasma
Gelatinase B (MMP-9) = target: T1, Gelatinase B (MMP-9) (Homo sapiens, UniProt P14780); assay: Catalytic inhibition of gelatinase B (MMP-9) in human serum (serum-based assay); type: biochemical
T1 construct: All the MMP-9 present in the samples (proMMP-9; active MMP-9 complexed or not complexed with the respective test substance) was isolated; from tissue; host or cells: freshly isolated human serum
T1 sequence (P14780 107-707 limits assumed): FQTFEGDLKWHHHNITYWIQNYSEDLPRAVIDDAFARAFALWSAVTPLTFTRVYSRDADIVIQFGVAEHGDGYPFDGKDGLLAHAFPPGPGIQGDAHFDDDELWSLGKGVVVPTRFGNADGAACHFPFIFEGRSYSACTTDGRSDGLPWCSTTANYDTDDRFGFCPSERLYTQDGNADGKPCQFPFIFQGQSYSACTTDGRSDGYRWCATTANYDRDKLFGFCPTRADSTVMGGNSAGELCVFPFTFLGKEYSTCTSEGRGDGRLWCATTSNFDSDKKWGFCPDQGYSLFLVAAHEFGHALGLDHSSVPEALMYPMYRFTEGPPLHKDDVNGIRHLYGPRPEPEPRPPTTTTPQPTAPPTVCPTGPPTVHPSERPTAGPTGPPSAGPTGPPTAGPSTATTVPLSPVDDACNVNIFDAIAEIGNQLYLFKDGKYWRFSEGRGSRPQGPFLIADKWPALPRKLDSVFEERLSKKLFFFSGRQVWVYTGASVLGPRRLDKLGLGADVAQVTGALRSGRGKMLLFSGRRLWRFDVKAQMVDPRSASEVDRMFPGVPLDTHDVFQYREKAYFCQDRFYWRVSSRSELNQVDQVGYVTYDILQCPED
Protocol: Freshly isolated human serum was shock-frozen in the desired volume in liquid N2 and then stored at −80° C. For the catalytic inhibition of MMP-9 in human serum, the appropriate parts by volume of human serum were thawed at room temperature. 100 parts by volume of undiluted, freshly thawed human serum were mixed with 1 part by volume of test substance, thoroughly mixed and incubated at 37° C. for 1 h. The test substances were dissolved in 100% dimethyl sulfoxide, and a 10 mM stock solution was prepared. For dose-effect plots, the test substances were tested in final concentrations of from […] to 0.001 μM for their catalytic inhibition of MMP-9 in human serum. The final concentration of DMSO in the reaction solution was 1% in each case.
Active MMP-9 from the reaction solutions described above was determined with the aid of a MMP-9 activity assay system (Amersham Pharmacia Biotech Europe GmbH).
After the incubation, one part by volume of the reaction mixture described above was diluted with 20 parts by volume of MMP-9 reaction buffer. The samples diluted in this way were transferred to a 96-well assay plate (Amersham Pharmacia Biotech Europe GmbH, Germany) coated with a specific MMP-9 antibody and incubated at 4° C. overnight. In addition, various concentrations of dissolved, recombinant human pro MMP-9 were likewise transferred onto the 96-well assay plate to construct the standard curve.
100 μl of the respective samples were employed per well. All the MMP-9 present in the samples (proMMP-9; active MMP-9 complexed or not complexed with the respective test substance) was isolated from the sample mixture by the specific MMP-9 antibody and bound to a solid matrix.
The immobilized MMP-9 samples were, after the incubation, washed 4× with 200 μl of washing buffer each time. Subsequently, proMMP-9 present was activated with 50 μl of APMA solution at 37° C. for 1.5 h.
The enzymic activity was measured by adding, after the incubation, 50 μl of detection reagent to each sample and mixing. The absorption of the assay plate charged in this way was measured immediately at 405 nm in an ELISA measuring instrument in order to fix time t=0. The assay plate was then incubated at 37° C. for 2 to 3 h and thereafter the absorption at 405 nm was measured.
Using the standard curve employed, the resulting measurements were converted as follows to the remaining, uninhibited active form of MMP-9 in ng/ml. • X=(Y−b)/m*20 • X=active MMP-9 in [ng/mL] • Y=measured absorption • b=intercept on y axis • m=gradient • 20=dilution factor
The inhibitory effect was calculated as percentage inhibition by the following formula: % inhibition=100−(X2*100/X1) • X1=active MMP-9 in [ng/ml] without test substance • X2=active MMP-9 in [ng/ml] with test substance
The IC50, the concentration of inhibitor which is necessary for 50% inhibition of the enzymic activity, was determined graphically by plotting the percentage inhibitions at various inhibitor concentrations.
The composition of the buffer solutions respectively employed was as follows:
Reaction buffer: • 50 mM Tris-HCl pH 7.6 • 1.5 mM NaCl • 0.5 mM CaCl2 • 1 μM ZnCl2 • 0.01% (v/v) BRIJ 35
Recombinant MMP-9 employed for standard: • 0; 0.5; 1.0; 2.0; 4.0; 8.0; 16.0 ng/ml
Washing buffer: • 0.01 M sodium phosphate buffer pH 7.0 • 0.05% Tween20
APMA solution: • 1 mM p-aminophenyl mercuric acetate • 50 mM Tris-HCl pH 7.6 • 1.5 mM NaCl • 0.5 mM CaCl2 • 1 μM ZnCl2 • 0.01% (v/v) BRIJ 35
Detection reagent: • Modified urokinase • S-2444 peptide substrate • 50 mM Tris-HCl pH 7.6 • 1.5 mM NaCl • 0.5 mM CaCl2 • 1 μM ZnCl2 • 0.01% (v/v) BRIJ 35

[1] = Thermodynamic solubility in PBS buffer pH 7.4, CLND (chemoluminescent nitrogen detector); type: physicochemical; settings: aqueous buffer, thermodynamic from solid, PBS buffer pH 7.4, room temperature
Protocol: The solution is then centrifuged at 14 000 rpm for 5 minutes. The solution is removed from the pellet and filtered through a syringe filter (0.45 μm pore size). The presence of a pellet is checked in order to ensure that a saturated solution was present. The filtered clear solution is analyzed by HPLC.
The dissolved amount of substance is quantified using a generic chromatographic method:
Either a calibration line derived from DMSO stock solutions (1-500 μM) of the appropriate substance is used to quantify the corresponding signal in the UV (254 nm) chromatogram of the solubility sample, or the quantification is undertaken via the peak area in the CLND trace. In the case of CLND quantification, caffeine is used as standard in a calibrating dilution.
The limit of quantitation is determined together with the calibration series. The limit of quantitation is normally 1-5 μM with UV detection, 5-10 μM with CLND quantification (depending on the number of nitrogen atoms in the molecule or the extinction coefficient of the molecule). If the intensity of the signal from the dissolved molecule is below the limit of quantitation, the result is reported as less than the limit of quantitation.
The clear solution after incubation for 16 hours is always measured as duplicates, once diluted 40-fold and once directly without dilution. The sample for which the signal is in the linear range of the calibration is used to determine the solubility.

[2] = hydroxamic acid derivatives, read-out: MMP-9*
[3] = carboxylic acid derivatives, read-out: MMP-9 activity

fraction unbound (Protein binding (human)) | pIC50 (Gelatinase B (MMP-9); [2]) | solubility at 16 h [1] | pIC50 (Gelatinase B (MMP-9); [3]) | SMILES
0.061 | 7.70 | 153 µM (≈ 85.3 µg/mL) | – | CCN(CC)CCOc1ccc2c(c1)CCN(S(=O)(=O)c1ccc(Oc3ccc(F)cc3)cc1)C2C(=O)NO (stereo not shown) [Exemplary compound 9, 6-(2-Diethylaminoethoxy)-2-[4-(4-fluorophenoxy)benzenesulfonyl]-1,2,3,4-tetrahydroisoquinoline-1-carboxylic acid hydroxyamide]
0.011 | 6.22 | 16 µM (≈ 9.31 µg/mL) | – | COc1ccc(Oc2ccc(S(=O)(=O)N3CCc4cc(OCCN5CCCCC5)ccc4C3C(=O)NO)cc2)cc1 (stereo not shown) [Exemplary compound 13, 2-[4-(4-Methoxyphenoxy)benzenesulfonyl]-6-(2-piperidin-1-ylethoxy)-1,2,3,4-tetrahydroisoquinoline-1-carboxylic acid hydroxyamide]
– | – | – | 5.12 | COc1ccc(Oc2ccc(S(=O)(=O)N3CCc4cc(OCCN5CCCCC5)ccc4C3C(=O)O)cc2)cc1 (stereo not shown) [Exemplary compound 14, 2-[4-(4-Methoxyphenoxy)benzenesulfonyl]-6-(2-piperidin-1-ylethoxy)-1,2,3,4-tetrahydroisoquinoline-1-carboxylic acid]
0.012 | 6.70 | 107 µM (≈ 61 µg/mL) | – | CCN(CC)CCOc1ccc2c(c1)CCN(S(=O)(=O)c1ccc(Oc3ccc(OC)cc3)cc1)C2C(=O)NO (stereo not shown) [Exemplary compound 15, 6-(2-Diethylaminoethoxy)-2-[4-(4-methoxyphenoxy)benzenesulfonyl]-1,2,3,4-tetrahydroisoquinoline-1-carboxylic acid hydroxyamide]
– | – | – | 5.18 | CCN(CC)CCOc1ccc2c(c1)CCN(S(=O)(=O)c1ccc(Oc3ccc(OC)cc3)cc1)C2C(=O)O (stereo not shown) [Exemplary compound 16, 6-(2-Diethylaminoethoxy)-2-[4-(4-methoxyphenoxy)benzenesulfonyl]-1,2,3,4-tetrahydroisoquinoline-1-carboxylic acid]

Continued, compound first:

SMILES | fraction unbound (Protein binding (human)) | pIC50 (Gelatinase B (MMP-9); [2]) | solubility at 16 h [1] | pIC50 (Gelatinase B (MMP-9); [3])
O=C(NO)C1c2ccccc2CCN1S(=O)(=O)c1ccc(Oc2ccc(F)cc2)cc1 (stereo not shown) [Comparative compound] | 0.002 | 5.60 | < 1 µM | –
O=C(O)C1c2ccccc2CCN1S(=O)(=O)c1ccc(Oc2ccc(F)cc2)cc1 (stereo not shown) [Comparative compound] | – | – | – | < 4.00
O=C(O)C1c2ccc(OCCN3CCCCC3)cc2CCN1S(=O)(=O)c1ccc(Oc2ccc(F)cc2)cc1 (stereo not shown) [Exemplary compound 2, 2-[4-(4-Fluorophenoxy)benzenesulfonyl]-6-(2-piperidin-1-ylethoxy)-1,2,3,4-tetrahydroisoquinoline-1-carboxylic acid] | – | – | – | 5.06
CN1CCN(CCCOc2ccc3c(c2)CCN(S(=O)(=O)c2ccc(Oc4ccc(F)cc4)cc2)C3C(=O)NO)CC1 (stereo not shown) [Exemplary compound 3, 2-[4-(4-Fluorophenoxy)benzenesulfonyl]-6-[3-(4-methylpiperazin-1-yl)propoxy]-1,2,3,4-tetrahydroisoquinoline-1-carboxylic acid hydroxamide] | 0.01 | 6.70 | 23 µM (≈ 13.8 µg/mL) | –
